From patent US20220053762A1, “HERBICIDAL COMPOSITIONS” (Bayer Aktiengesellschaft, priority 2018, published 2022)

Tested on: harmful plant species
Assay: Specific trial examples: binary compositions applied by the post-emergence method, synergistic effect according to Colby (Tables 3.1-3.2)
Assay type: in vivo
Details: for Herbicidal action against Echinochloa crus-galli: g a.i./ha: r372 270, r373 90, r374 30, r375 5; for Herbicidal action 28 DAT [%] against Eleusine indica: g a.i./ha: r337 150, r339 5; for Herbicidal action 28 DAT [%] against Polygonum convulvulus: g a.i./ha: r357 50, r359 5; for Herbicidal action against Brachiaria platyphylla: g a.i./ha: r479 30, r480 1.7; for Herbicidal action against Eleusine indica: g a.i./ha: r487 270, r488 5; for Herbicidal action 28 DAT [%] against Pharbitis purpurea: g a.i./ha: r396 50, r398 5
Protocol: When the observed efficacies already exceed the formal sum total of the values of the tests with individual applications, they also exceed the expected value according to Colby, which is calculated using the formula below and is likewise regarded as an indication of synergism (cf. S. R. Colby; in Weeds 15 (1967) p. 20 to 22):
Seeds or rhizome pieces of mono- and dicotyledonous weeds are placed in sandy loam in pots, covered with soil and grown in a greenhouse under good growth conditions (temperature, air humidity, water supply). Three weeks after sowing, the test plants are treated at the three-leaf stage with the compositions according to the invention. The compositions according to the invention formulated as spray powders or as emulsion concentrates are sprayed onto the green plant parts in various dosages with an application rate of 300 to 800 l/ha of water (equivalent).
The sum total of the effects of the individual applications is reported under E^A; Expected values according to Colby are each reported under E^C.
The rating period is reported in days after application (DAT).

[1] = post-emergence, single active compound (A2 series)
[2] = post-emergence, single active compound (A2 series), g a.i./ha: r347 50, r349 5
[3] = Z61 28 DAT, g a.i./ha: r459 30, r460 15
[4] = post-emergence, single active compound

In the case of `C[C@]1(C(=O)N[C@H]2CO[C@@H](C(=O)NS(C)(=O)=O)C2)CC(c2cc(F)cc(F)c2)=NO1` (relative stereo) [Compound A2, (5R)-3-(3,5-difluorophenyl)-5-methyl-N-[rel-(3R,5R)-5-(methylsulfonylcarbamoyl)tetrahydrofuran-3-yl]-4H-isoxazole-5-carboxamide], the “Herbicidal action 28 DAT against Brachiaria platyphylla” value (1.7 g a.i./ha) is reported as 0%, the “Herbicidal action 28 DAT against Digitaria sanguinalis” value (1.7 g a.i./ha) is reported as 0% and the “Herbicidal action 28 DAT against Echinochloa crus-galli” value (1.7 g a.i./ha) is reported as 10%. For the same compound, the “Herbicidal action 28 DAT against Eleusine indica” value (1.7 g a.i./ha) was 30%, the “Herbicidal action 28 DAT against Sorghum halepense” value (1.7 g a.i./ha) was 0% and the “Herbicidal action 28 DAT against Amaranthus palmeri (res.)” value (from here on “Herbicidal action 28 DAT … (res.)”) (5 g a.i./ha) was 15%. The “Herbicidal action 28 DAT against Digitaria sanguinalis” value (5 g a.i./ha) was 0%, the “Herbicidal action 28 DAT against Echinochloa crus-galli” value (5 g a.i./ha) was 20% and the “Herbicidal action 28 DAT against Eleusine indica” value (5 g a.i./ha) was 35%. The “Herbicidal action 28 DAT against Kochia scoparia” value (5 g a.i./ha) was 20%, the “Herbicidal action 28 DAT against Pharbitis purpurea” value (5 g a.i./ha) was 75% and the “Herbicidal action 28 DAT against Polygonum convolvulus” value (5 g a.i./ha) was 80%. The “Herbicidal action 28 DAT against Sorghum halepense” value (5 g a.i./ha) was 0%, the “Herbicidal action 28 DAT … (res.)” value (15 g a.i./ha) was 65% and the “Herbicidal action 28 DAT against Eleusine indica” value (15 g a.i./ha) was 45%. For the same compound, the “Herbicidal action 28 DAT against Kochia scoparia” value (15 g a.i./ha) was 20%, the “Herbicidal action 28 DAT against Sorghum halepense” value (15 g a.i./ha) was 15% and the “Herbicidal action against Abutilon theophrasti” value ((Z32) 28 DAT, g a.i./ha: r315 270, r316 90, r317 30, r318 15) was 20%. The “Herbicidal action against Bidens pilosa” value ((Z32) 28 DAT, g a.i./ha: r337 270, r338 90, r339 30, r340 15) was 10%, the “Herbicidal action against Digitaria sanguinalis” value ((Z32) 28 DAT, g a.i./ha: r361 270, r362 90, r363 30, r364 15) was 10% and the “Herbicidal action against Echinochloa crus-galli” value ((Z32) 28 DAT) was 20%. The “Herbicidal action against Kochia scoparia” value ((Z32) 28 DAT, g a.i./ha: r396 270, r397 90, r398 15, r399 5) was 20%, the “Herbicidal action against Pharbitis purpurea” value ((Z32) 28 DAT, g a.i./ha: r408 270, r409 90, r410 30, r411 5) was 75% and the “Herbicidal action against Polygonum convolvulus” value ((Z32) 28 DAT, g a.i./ha: r419 90, r420 30, r421 5) was 80%. The “Herbicidal action 28 DAT [%] against Digitaria sanguinalis” value (post-emergence, single active compound (A2 series), g a.i./ha: r326 150, r327 50, r328 5, r329 1.7) was 0%, the “Herbicidal action 28 DAT [%] against Eleusine indica” value [1] was 35% and the “Herbicidal action 28 DAT [%] against Kochia scoparia” value [2] was 20%. The “Herbicidal action 28 DAT [%] against Polygonum convulvulus” value [1] was 80%.
With `C=C[C@]1(C(=O)N[C@H]2CO[C@@H](C(=O)NOC)C2)CC(c2cc(C)cc(F)c2)=NO1` (relative stereo) [Compound A3, (5S)-3-(3-fluoro-5-methylphenyl)-N-[rel-(3R,5R)-5-(methoxycarbamoyl)tetrahydrofuran-3-yl]-5-vinyl-4H-isoxazole-5-carboxamide] the “Herbicidal action 28 DAT … (res.)” value (15 g a.i./ha) was 10%, the “Herbicidal action 28 DAT … (res.)” value (45 g a.i./ha) was 20% and the “Herbicidal action 28 DAT against Kochia scoparia” value (45 g a.i./ha) was 20%. The “Herbicidal action against Abutilon theophrasti” value [3] was 10%, the “Herbicidal action against Amaranthus palmeri (res.)” value (Z61 28 DAT, g a.i./ha: r467 90, r468 30, r469 15, r470 5) was 10% and the “Herbicidal action against Brachiaria platyphylla” value (Z61 28 DAT) was 10%. For the same compound, the “Herbicidal action against Eleusine indica” value (Z61 28 DAT) was 70% and the “Herbicidal action 28 DAT [%] against Pharbitis purpurea” value [4] was 70%.
With `O=C(Nc1ccc(F)cc1F)c1cccnc1Oc1cccc(C(F)(F)F)c1` [(B2.18) Diflufenican] the “Herbicidal action against Digitaria sanguinalis” value (28 DAT, g a.i./ha: r8 270, r9 90, r10 30, r11 15, r12 5) was 20%, the “Herbicidal action against Setaria faberi” value (28 DAT, g a.i./ha: r35 270, r36 90, r37 30, r38 15, r39 5, r40 1.67) was 0% and the “Herbicidal action against Setaria viridis” value (28 DAT, g a.i./ha: r51 270, r52 15, r53 5, r54 1.67) was 10%. The “Herbicidal action against Alopecurus myosuroides (sensitive biotype)” value (28 DAT, g a.i./ha: r149 15, r150 5, r151 270, r152 90, r153 30) was 0%, the “Herbicidal action against Papaver rhoeas” value (28 DAT, g a.i./ha: r231 15, r232 5, r233 270) was 30% and the “Herbicidal action against Veronica hederifolia” value (28 DAT, g a.i./ha: r294 5, r295 90) was 60%. The “Herbicidal action against Echinochloa crus-galli” value ((Z32) 28 DAT) was 10%, the “Herbicidal action against Centaurea cyanus” value ((Z90) 14 DAT, g a.i./ha: r533 16, r534 4, r535 1, r536 90, r537 30) was 50% and the “Herbicidal action against Lamium purpureum L.” value ((Z90) 28 DAT, g a.i./ha: r586 16, r587 30) was 10%. For the same compound, the “Herbicidal action against Lolium rigidum” value ((Z90) 28 DAT, g a.i./ha: r594 16, r595 30) was 0%, the “Herbicidal action against Matricaria inodora” value ((Z90) 28 DAT, g a.i./ha: r602 4, r603 90) was 10% and the “Herbicidal action against Viola tricolor” value ((Z90) 28 DAT, g a.i./ha: r624 4, r625 270) was 40%. For the same compound, the “Herbicidal action against Alopecurus myosuroides” value ((Z119) 14 DAT, g a.i./ha: r632 16, r633 4, r634 30, r635 270) was 20%, the “Herbicidal action against Lolium rigidum” value ((Z119) 14 DAT, g a.i./ha: r682 16, r683 30) was 10% and the “Herbicidal action against Phalaris minor” value ((Z119) 14 DAT, g a.i./ha: r709 4, r710 270) was 20%. The “Herbicidal action against Poa annua L.” value ((Z119) 14 DAT, g a.i./ha: r729 4, r730 270) was 20%, the “Herbicidal action against Centaurea cyanus” value ((Z119) 28 DAT, g a.i./ha: r654 16, r655 30) was 10% and the “Herbicidal action against Galium aparine” value ((Z119) 28 DAT, g a.i./ha: r662 1, r663 270) was 20%. For the same compound, the “Herbicidal action against Lolium rigidum” value ((Z119) 28 DAT, g a.i./ha: r690 16, r691 30) was 0%, the “Herbicidal action against Abutilon theophrasti” value [3] was 10% and the “Herbicidal action against Brachiaria platyphylla” value (Z61 28 DAT) was 10%. The “Herbicidal action against Eleusine indica” value (Z61 28 DAT) was 20%.
With `CP(=O)(O)CCC(N)C(=O)O` (centres unmarked) [(B7.4) Glufosinate] the “Herbicidal action 28 DAT [%] against Eleusine indica” value [1] was 50%, the “Herbicidal action 28 DAT [%] against Kochia scoparia” value [2] was 10% and the “Herbicidal action 28 DAT [%] against Polygonum convulvulus” value [1] was 30%. The “Herbicidal action 28 DAT [%] against Kochia scoparia” value (post-emergence, single active compound (A3 series), g a.i./ha: r384 50, r386 45, r387 15, r388 5) was 10%, the “Herbicidal action in [%] 14 DAT against Galium aparine” value (post-emergence, single active compound (A4 series), g a.i./ha: r479 16, r480 4, r481 1, r482 150) was 30% and the “Herbicidal action in [%] 28 DAT against Galium aparine” value (post-emergence, single active compound (A4 series), g a.i./ha: r491 16, r492 50) was 30%. For the same compound, the “Herbicidal action in [%] 14 DAT against Lamium purpureum L.” value (post-emergence, single active compound (A4 series), g a.i./ha: r501 4, r502 1, r503 450) was 80%, the “Herbicidal action in [%] 28 DAT against Lamium purpureum L.” value (post-emergence, single active compound (A4 series), g a.i./ha: r512 4, r513 1, r514 450) was 60% and the “Herbicidal action in [%] 28 DAT against Lolium rigidum (resistant bio type)” value (post-emergence, single active compound (A4 series), g a.i./ha: r523 1, r524 450) was 20%. For the same compound, the “Herbicidal action in [%] 14 DAT against Poa annua L.” value (post-emergence, single active compound (A4 series), g a.i./ha: r533 16, r534 450) was 40%, the “Herbicidal action in [%] 28 DAT against Bromus sterilis” value (post-emergence, single active compound (A5 series), g a.i./ha: r617 4, r618 450) was 10% and the “Herbicidal action in [%] 14 DAT against Centaurea cyanus” value (post-emergence, single active compound (A5 series), g a.i./ha: r627 16, r628 1, r629 450, r630 150) was 70%. The “Herbicidal action in [%] 14 DAT against Galium aparine” value (post-emergence, single active compound (A5 series), g a.i./ha: r649 1, r650 150) was 30%, the “Herbicidal action in [%] 14 DAT against Lamium purpureum L.” value (post-emergence, single active compound (A5 series), g a.i./ha: r659 1, r660 450) was 80% and the “Herbicidal action in [%] 28 DAT against Lamium purpureum L.” value (post-emergence, single active compound (A5 series), g a.i./ha: r669 1, r670 450) was 60%. For the same compound, the “Herbicidal action 28 DAT [%] against Setaria faberi” value (post-emergence, single active compound, g a.i./ha: r40 50, r42 15, r43 5) was 10%, the “Herbicidal action 28 DAT [%] against Setaria viridis” value (post-emergence, single active compound, g a.i./ha: r51 50, r53 15, r54 5, r55 1.67) was 10% and the “Herbicidal action 28 DAT [%] against Abutilon theophrasti” value (post-emergence, single active compound, g a.i./ha: r77 450, r79 15, r80 5) was 90%. The “Herbicidal action 28 DAT [%] against Euphorbia heterophylla” value (post-emergence, single active compound, g a.i./ha: r88 150, r89 50, r90 45, r91 15, r92 5) was 15%, the “Herbicidal action 28 DAT [%] against Bromus sterilis” value (post-emergence, single active compound, g a.i./ha: r172 5, r173 1.67, r174 450) was 30% and the “Herbicidal action 28 DAT [%] against Galium aparine” value (post-emergence, single active compound, g a.i./ha: r183 5, r184 50) was 0%. For the same compound, the “Herbicidal action 28 DAT [%] against Lamium purpureum” value (post-emergence, single active compound, g a.i./ha: r204 45, r205 50) was 50%, the “Herbicidal action 28 DAT [%] against Lolium rigidum (sensitive biotype)” value (post-emergence, single active compound, g a.i./ha: r214 15, r215 150, r216 50) was 0% and the “Herbicidal action 28 DAT [%] against Lolium rigidum (resistant biotype)” value (post-emergence, single active compound, g a.i./ha: r224 15, r225 5, r226 150, r227 50) was 0%. The “Herbicidal action 28 DAT [%] against Veronica hederifolia” value (post-emergence, single active compound, g a.i./ha: r292 5, r293 150) was 70%, the “Herbicidal action 28 DAT [%] against Brachiaria platyphylla” value (post-emergence, single active compound, g a.i./ha: r314 50, r316 15, r317 5, r318 1.7) was 30% and the “Herbicidal action 28 DAT [%] against Pharbitis purpurea” value [4] was 40%. The “Herbicidal action in [%] 28 DAT against Poa annua L.” value (post-emergence, single active compound, g a.i./ha: r721 16, r722 450) was 30%.
